# What was measured:
# [1] = test system: Mycobacterium tuberculosis; assay: Antimycobacterial activity against Mycobacterium tuberculosis H37Rv; format: functional
# [2] = test system: Mycobacterium tuberculosis; assay: Antimycobacterial activity against Mycobacterium tuberculosis H37Rv ATCC 27294 by broth dilution method; format: functional
# [3] = test system: J774; assay: Cytotoxicity against mouse J774 cells incubated for 24 hrs by MTT assay; format: toxicity, cell-based; conditions: j774, 24 h
# [4] = test system: Mycobacterium tuberculosis; assay: Antitubercular activity against active stage of Mycobacterium tuberculosis H37Ra; format: functional
# [5] = test system: Mycobacterium tuberculosis; assay: Antitubercular activity against dormant stage of Mycobacterium tuberculosis H37Ra; format: functional
# [6] = test system: HeLa; assay: Cytotoxicity against human HeLa cells assessed as cell growth inhibition; format: functional
# [7] = test system: MCF7; assay: Cytotoxicity against human MCF7 cells assessed as cell growth inhibition; format: functional
# [8] = Cytotoxicity against HUVEC cells assessed as cell growth inhibition; format: toxicity, cell-based; conditions: human
# [9] = Selectivity index, ratio of GI50 for cytotoxicity against human HeLa cells to MIC for antitubercular activity against active stage of Mycobacterium tuberculosis H37Ra; format: toxicity, cell-based; conditions: read-out: Selectivity Index
# [10] = Selectivity index, ratio of GI50 for cytotoxicity against human HeLa cells to MIC for antitubercular activity against dormant stage of Mycobacterium tuberculosis H37Ra; format: toxicity, cell-based; conditions: read-out: Selectivity Index
# [11] = Selectivity index, ratio of GI50 for cytotoxicity against human MCF7 cells to MIC for antitubercular activity against active stage of Mycobacterium tuberculosis H37Ra; format: toxicity, cell-based; conditions: read-out: Selectivity Index
# [12] = Selectivity index, ratio of GI50 for cytotoxicity against human MCF7 cells to MIC for antitubercular activity against dormant stage of Mycobacterium tuberculosis H37Ra; format: toxicity, cell-based; conditions: read-out: Selectivity Index
# [13] = Selectivity index, ratio of GI50 for cytotoxicity against HUVEC cells to MIC for antitubercular activity against active stage of Mycobacterium tuberculosis H37Ra; format: toxicity, cell-based; conditions: human, read-out: Selectivity Index
# [14] = Selectivity index, ratio of GI50 for cytotoxicity against HUVEC cells to MIC for antitubercular activity against dormant stage of Mycobacterium tuberculosis H37Ra; format: toxicity, cell-based; conditions: human, read-out: Selectivity Index
# [15] = test system: Mycobacterium tuberculosis; assay: Antimycobacterial activity against non replicating Mycobacterium tuberculosis by broth dilution method; format: functional
# [16] = Cytotoxicity against HEK293T cells assessed as reduction in cell viability; format: toxicity, cell-based, HEK-293T; conditions: human
# [17] = Cytotoxicity against Chinese hamster CHO-K1 cells assessed as inhibition of cell growth; format: toxicity, cell-based, Cricetulus griseus
# [18] = Selectivity index, ratio of IC50 for cytotoxicity against Chinese hamster CHO-K1 cells to MIC for antimycobacterial activity against Mycobacterium tuberculosis H37Rv; format: toxicity, cell-based; conditions: read-out: Selectivity Index
smiles,measurement,setting,value
Cc1ccc(OCCc2cn(C[C@@]3(C)Cn4cc([N+](=O)[O-])nc4O3)nn2)cc1,MIC,[1],0.25 µg/mL
same,MIC,[2],0.25 µg/mL
same,Activity,[3],> 40 µg/mL
C=CCOC(=O)c1ccsc1NC(=O)[C@@H]1CCCN1,MIC,[4],23.2 µg/mL
same,MIC,[5],2.03 µg/mL
same,GI50,[6],94.9 µg/mL
same,GI50,[7],96.6 µg/mL
same,GI50,[8],149 µg/mL
same,selectivity ratio,[9],4.08
same,selectivity ratio,[10],46.7
same,selectivity ratio,[11],4.16
same,selectivity ratio,[12],47.6
same,selectivity ratio,[13],6.41
same,selectivity ratio,[14],73.3
COC(=O)c1ccsc1NC(=O)[C@H]1CCCN1,MIC,[4],10.8 µg/mL
same,MIC,[5],8.78 µg/mL
same,GI50,[6],91.4 µg/mL
same,GI50,[7],179 µg/mL
same,GI50,[8],95.8 µg/mL
same,selectivity ratio,[9],8.43
same,selectivity ratio,[10],10.4
same,selectivity ratio,[11],16.5
same,selectivity ratio,[12],20.4
same,selectivity ratio,[13],8.84
same,selectivity ratio,[14],10.9
CCc1ccc(OCc2cn(C[C@@]3(C)Cn4cc([N+](=O)[O-])nc4O3)nn2)cc1,MIC,[15],2 µg/mL
same,MIC,[2],2 µg/mL
same,Activity,[3],> 40 µg/mL
CC(=O)N1/C(=C/c2ccccc2)C(=O)c2cc(-c3ccccc3)ccc21,MIC90,[1],1.24 µM
same,MIC99,[1],1.39 µM
same,CC50,[16],12 µM
C[C@]1(Cn2cc(COc3ccc(OC(F)(F)F)cc3)nn2)Cn2cc([N+](=O)[O-])nc2O1,MIC,[15],4 µg/mL
same,MIC,[2],2 µg/mL
same,Activity,[3],> 40 µg/mL
C[C@]1(Cn2cc(-c3ccc(F)cc3)nn2)Cn2cc([N+](=O)[O-])nc2O1,MIC,[15],2 µg/mL
same,MIC,[2],1 µg/mL
same,Activity,[3],> 40 µg/mL
O=C(OC1CCCCC1)c1ccsc1NC(=O)[C@@H]1CCCN1,MIC,[4],24.6 µg/mL
same,MIC,[5],4.92 µg/mL
same,GI50,[6],92.8 µg/mL
same,GI50,[7],162 µg/mL
same,GI50,[8],137 µg/mL
same,selectivity ratio,[9],3.76
same,selectivity ratio,[10],18.9
same,selectivity ratio,[11],6.59
same,selectivity ratio,[12],33
same,selectivity ratio,[13],5.57
same,selectivity ratio,[14],27.9
C[C@]1(Cn2cc(-c3ccc(C(F)(F)F)cc3)nn2)Cn2cc([N+](=O)[O-])nc2O1,MIC,[15],8 µg/mL
same,MIC,[2],2 µg/mL
same,Activity,[3],> 40 µg/mL
Cc1ccccc1OCc1cn(C[C@@]2(C)Cn3cc([N+](=O)[O-])nc3O2)nn1,MIC,[15],2 µg/mL
same,MIC,[2],0.5 µg/mL
same,Activity,[3],> 40 µg/mL
O=C(OCC(Cl)(Cl)Cl)c1ccsc1NC(=O)[C@@H]1CCCN1,MIC,[4],20.4 µg/mL
same,MIC,[5],16.1 µg/mL
same,GI50,[6],> 250 µg/mL
same,GI50,[7],> 250 µg/mL
same,GI50,[8],> 250 µg/mL
same,selectivity ratio,[9],> 12.3
same,selectivity ratio,[10],> 15.5
same,selectivity ratio,[11],> 12.3
same,selectivity ratio,[12],> 15.5
same,selectivity ratio,[13],> 12.3
same,selectivity ratio,[14],> 15.5
Cc1cccc(OCc2cn(C[C@@]3(C)Cn4cc([N+](=O)[O-])nc4O3)nn2)c1,MIC,[15],0.5 µg/mL
same,MIC,[2],0.5 µg/mL
same,Activity,[3],> 40 µg/mL
Cc1nc(C)c(-c2nnc(S)o2)s1,MIC,[1],1.3 µg/mL
same,IC50,[17],21.7 µg/mL
Oc1ccc(-c2nnc(S)o2)cc1,MIC,[1],0.6 µg/mL
same,selectivity ratio,[18],39.6
C[C@]1(Cn2cc(COc3ccccc3F)nn2)Cn2cc([N+](=O)[O-])nc2O1,MIC,[15],0.5 µg/mL
same,MIC,[2],0.25 µg/mL
same,Activity,[3],> 40 µg/mL
C[C@]1(Cn2cc(-c3ccc(Oc4ccccc4)cc3)nn2)Cn2cc([N+](=O)[O-])nc2O1,MIC,[15],2 µg/mL
same,MIC,[2],2 µg/mL
same,Activity,[3],> 40 µg/mL
CC(=O)N1/C(=C/c2ccc(-c3ccc(F)cc3)cc2)C(=O)c2ccccc21,MIC90,[1],1.26 µM
same,MIC99,[1],1.98 µM
same,CC50,[16],9 µM
C[C@]1(Cn2cc(COc3ccc(C(F)(F)F)cc3)nn2)Cn2cc([N+](=O)[O-])nc2O1,MIC,[15],2 µg/mL
same,MIC,[2],1 µg/mL
same,Activity,[3],> 40 µg/mL
C[C@]1(Cn2cc(COc3ccc(Br)cc3)nn2)Cn2cc([N+](=O)[O-])nc2O1,MIC,[15],0.25 µg/mL
same,MIC,[2],0.12 µg/mL
same,Activity,[3],> 40 µg/mL
Cc1cc(-c2cn(C[C@@]3(C)Cn4cc([N+](=O)[O-])nc4O3)nn2)ccc1F,MIC,[15],4 µg/mL
same,MIC,[2],2 µg/mL
same,Activity,[3],> 40 µg/mL
C[C@]1(Cn2cc(COc3ccccn3)nn2)Cn2cc([N+](=O)[O-])nc2O1,MIC,[15],2 µg/mL
same,MIC,[2],1 µg/mL
same,Activity,[3],> 40 µg/mL

# Reference: ChEMBL document CHEMBL5244273, “Tuberculosis: An Overview of the Immunogenic Response, Disease Progression, and Medicinal Chemistry Efforts in the Last Decade toward the Development of Potential Drugs for Extensively Drug-Resistant Tuberculosis Strains” (J Med Chem, 2021)
